# From US20110144281A1, “AMPHIPHILIC POLYMERS HAVING A CHOLANE CORE” (VALORISATION-RECHERCHE, SOCIETE EN COMMANDITE, priority 2007, published 2011)
# Legend:
# [1] = TEM of aggregates (freeze-fracture etching); type: physicochemical; conditions: TEM images; sodium cholate at 0.040 molal, CA-PEG4 above CAC
# Protocol: For transmission electron microscopy (TEM), different sample concentrations were prepared in milli-Q water for freeze-fracture. A small amount of these solutions were dropped onto a good sample carrier, and then frozen in liquid propane. The frozen samples were then mounted on the sample holder of a BAL-TEC freeze etching instrument (model BAF060). Samples were then fractured, let sublimate for less than 30 seconds before the newly created surface was coated from an angle of 45° (shadowed) with 2 nm of platinum-doped carbon. A 10 nm layer of carbon was then applied perpendicularly. The samples were placed in distilled water to make the platinum-carbon replica float on the water surface. They were then deposited on carbon-coated copper grids. The replicas were examined on a JEOL JEM-2000FX TEM operating at an acceleration voltage of 80 kV.
# TEM images of the star polymers shown in FIG. 8 provide unequivocal evidence for the formation of micellar aggregates.
# [2] = literature (Reis et al. 2004); cited from earlier work
# [3] = Loading of a drug: solubilisation of ibuprofen in water; type: physicochemical; conditions: after vigorous agitation
shape of aggregates [1],solubility in neutral water [3],Compound,CAC of sodium cholate [2]
cylindrical,,C[C@H](CCC(=O)[O-])[C@H]1CC[C@H]2[C@@H]3[C@H](O)C[C@@H]4C[C@H](O)CC[C@]4(C)[C@H]3C[C@H](O)[C@]12C.[Na+] [sodium cholate],8 millimolal
,very limited,CC(C)Cc1ccc(C(C)C(=O)O)cc1 (stereo not drawn) [Ibuprofen],
